Broadly, the viability, T/C is the result in the treated group divided by that in the control group, in per cent. A word on the IC50: it is the midpoint of a concentration-inhibition curve.

This passage reports viability, T/C and IC50 results from PubChem BioAssay AID2060900 (Molecular Pharmacology Branch, DTP, NCI, 2025).

This assay concerns 521955-158-R2-J5-PDC complex spheroids, viability. The assay can be described thus: Anticancer human tumor 521955-158-R2-J5-PDC patient-derived pancreatic carcinoma cell line growth inhibition [RAS]. To be noted: for viability, T/C: stronger effect = lower value. The method, boiled down: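 Tumour cells grown as complex spheroids with HUVEC endothelial cells and mesenchymal stem cells, treated with RAS pathway inhibitor combinations. Each agent spans half-log steps from near clinical Cmax, or 10 microM where Cmax is unknown.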

Bounds are passed on as bounds.
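Also: compound exposure lasted seven days before the viability read.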
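For viability, T/C in this document: spheroids also contain HUVEC endothelial cells and mesenchymal stem cells as stroma.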

For the molecule `CC(=O)OC12COC1CC(O)C1(C)C(=O)C(O)C3=C(C)C(OC(=O)C(O)C(NC(=O)OC(C)(C)C)c4ccccc4)CC(O)(C(OC(=O)c4ccccc4)C21)C3(C)C` (configuration not stated), the viability, T/C (compound 0.0316 µM) is 38.4% [middle of 4 runs]; the viability, T/C (compound 0.316 µM) was 27.9% [middle of 4 runs]; the viability, T/C (compound 1 µM) is 35% [middle of 4 runs]; the viability, T/C (compound 3.16 µM) is 42.6% [middle of 4 runs]. Where the note is “curve of compound”, the half-inhibitory concentration (IC50) is below 0.0316 µM.

On to `Cc1nc(N2CCC3(CC2)COC(C)C3N)c(CO)nc1Sc1ccnc(N)c1Cl` (configuration not stated) + CCn1c(-c2cccnc2C(C)OC)c2c3cc(ccc31)N1CCOC(CC(NC(=O)C(C(C)C)N(C)C(=O)C3(F)CCN(C(=O)C#CC(C)(C)N(C)C)CC3)C(=O)N3CCCC(N3)C(=O)OCC(C)(C)C2)C1, for which the IC50 (curve of first compound, second compound 0.000949 µM) was above 10 µM; the IC50 (curve of first compound, second compound 0.003 µM) worked out at 5.11 µM; the half-inhibitory concentration (IC50) (curve of first compound, second compound 0.00949 µM) was 3.12 µM; the half-maximal inhibitory concentration (IC50) (curve of first compound, second compound 0.03 µM) was found to be 1.19 µM; the IC50 (curve of first compound, second compound 0.0949 µM) was determined as 4.39 µM; the IC50 (curve of first compound, second compound 0.3 µM) amounted to 0.546 µM. In addition, the viability, T/C by setting is: (second compound 0.000949 µM, first compound 0.0316 µM) 72.8%; (second compound 0.000949 µM, first compound 0.1 µM) 64%; (second compound 0.000949 µM, first compound 0.316 µM) 50.8%; (second compound 0.000949 µM, first compound 1 µM) 59.4%; (second compound 0.000949 µM, first compound 3.16 µM) 52.6%; (second compound 0.000949 µM, first compound 10 µM) 50.8%. Also, the viability, T/C runs as follows: (second compound 0.003 µM, first compound 0.0316 µM) 74.3%; (second compound 0.003 µM, first compound 0.1 µM) 61.3%; (second compound 0.003 µM, first compound 0.316 µM) 73.6%; (second compound 0.003 µM, first compound 1 µM) 61.4%; (second compound 0.003 µM, first compound 3.16 µM) 49.4%; (second compound 0.003 µM, first compound 10 µM) 46.4%. The viability, T/C reads like this: (second compound 0.00949 µM, first compound 0.0316 µM) 75.7%; (second compound 0.00949 µM, first compound 0.1 µM) 61.8%; (second compound 0.00949 µM, first compound 0.316 µM) 61.6%; (second compound 0.00949 µM, first compound 1 µM) 50.4%; (second compound 0.00949 µM, first compound 3.16 µM) 50.1%; (second compound 0.00949 µM, first compound 10 µM) 48.4%. The viability, T/C runs as follows: (second compound 0.03 µM, first compound 0.0316 µM) 83%; (second compound 0.03 µM, first compound 0.1 µM) 64.4%; (second compound 0.03 µM, first compound 0.316 µM) 54.2%; (second compound 0.03 µM, first compound 1 µM) 49.2%; (second compound 0.03 µM, first compound 3.16 µM) 50.8%; (second compound 0.03 µM, first compound 10 µM) 47%. In addition, the viability, T/C is, setting by setting: (second compound 0.0949 µM, first compound 0.0316 µM) 68%; (second compound 0.0949 µM, first compound 0.1 µM) 66.3%; (second compound 0.0949 µM, first compound 0.316 µM) 55.8%; (second compound 0.0949 µM, first compound 1 µM) 54.1%; (second compound 0.0949 µM, first compound 3.16 µM) 55%; (second compound 0.0949 µM, first compound 10 µM) 45.6%. The viability, T/C was 59.1% (second compound 0.3 µM, first compound 0.0316 µM); 46.3% (second compound 0.3 µM, first compound 0.1 µM); 53.9% (second compound 0.3 µM, first compound 0.316 µM); 51.6% (second compound 0.3 µM, first compound 1 µM); 45.4% (second compound 0.3 µM, first compound 3.16 µM); 42.8% (second compound 0.3 µM, first compound 10 µM).
